Marks after values point to notes of the source that are not given here.
Tests used:
[1] = test system: neuron apoptosis-operated rats; assay: Example 2 hindlimb placing test; type: in vivo, Sprague-Dawley (SD) rats
Protocol: (§1) Sensorimotor function was evaluated by use of limb placing (de Ryck M et al., Stroke. 20:1383-90(1989)) and body swing (Borlongan and Sanberg, J Neurosci. 15:5372-8(1995)) tests. These tests were performed at 1 and 28 days after neuron apoptosis. The investigator performing the surgery and behavioral assessments was blinded to treatment assignment.
Limb placing test: Forelimb and hindlimb placement were assessed independently. For the forelimb placing test, the rats were held by their torso with their forepaws hanging free and moved slowly toward the edge of a tabletop, stopping short of touching the vibrissae (for vision-induced placing), touching the vibrissae (for vibrissae-induced placing), making light contact with the front of the forepaw to the edge of the tabletop (for tactile-induced placing), and pressing the forepaws to the edge of the table with increased pressure (for proprioceptive-induced placing). Hindlimb placing was conducted in the same manner as above but with tactile and proprioceptive stimulation applied to the front/top of each hindlimb. Each limb for placing in response to visual, vibrissae, tactile, and proprioceptive stimulation are scored in the following manner: normal performance=0 points; performance with unilateral limb=1 point; performance with a delay (2 seconds) and/or incomplete=2 point; no performance=3 points. A total of 12 points in forelimb placing test and 6 points in hindlimb placing test means maximal neurological deficit, and 0 points means normal performance.
All data were expressed as mean±standard deviation (S.D.) of ten rats. Multiple comparison tests for different dose groups were conducted. Variance homogeneity was examined using the Levene test (Levene A, Clin Otalary, 1981; 6:145-51). […] In addition, the percent changes as compared with neuron apoptosis control and mirodenafil treated rats were calculated to help the understanding of the efficacy of test substances as follow Equation 6 and 7. […]

[2] = test system: neuron apoptosis-operated rats; assay: Example 1 body swing test; type: in vivo, Sprague-Dawley (SD) rats
Protocol: as §1, with “placing de” for “placing (de”, “performed one day before neuron apoptosis to obtain a baseline and then” for “performed”, “at 1, 3, 7, 14, 21” for “at 1”, “apoptosis. Behavioral tests were done before drug administration on days when both were scheduled.” for “apoptosis.”
Body swing tests: Animals were held approximately 2 cm from the base of its tail and elevated to an inch above a surface of a table. A swing was recorded whenever the rat moved its head out of the vertical axis to either side by more than 10° from vertical and then returned to the vertical position. Thirty total swings were counted per animal. After right-hemisphere neuron apoptosis, animals tend to swing to the contralateral (left) side. Thus, the numbers and percentages of body swings to the ipsilateral (right) side were recorded as a measure of recovery, with an intact animal scoring.
All data were expressed as mean±standard deviation (S.D.) of ten rats. Multiple comparison tests for different dose groups were conducted. Variance homogeneity was examined using the Levene test (Levene A, Clin Otalary, 1981; 6:145-51). […] Statistical analyses were conducted using SPSS (Release 14K, SPSS Inc., USA; Ludbrook, Clin Exp Pharmacol Physiol, 1997; 24:294-6). In addition, the percent changes between neuron apoptosis control and mirodenafil treated rats were calculated to help the understanding of the efficacy of test material as follow equation 3. Percentage changes as compared with neuron apoptosis control (%)=[((Data of mirodenafil treated groups−Data of neuron apoptosis control)/Data of neuron apoptosis control)×100] [EQUATION 3]

[3] = 0.5 mg/kg group, day 1 after operation (before drug administration)
[4] = 0.5 mg/kg group, day −1 (baseline)
[5] = 0.5 mg/kg s.c. once a day, day 3 after operation
[6] = 0.5 mg/kg s.c. once a day, day 7 after operation
[7] = 0.5 mg/kg s.c. once a day, day 14 after operation
[8] = 0.5 mg/kg s.c. once a day, day 21 after operation
[9] = 0.5 mg/kg s.c. once a day, day 28 after operation
[10] = 1 mg/kg group, day 1 after operation (before drug administration)
[11] = 1 mg/kg group, day −1 (baseline)
[12] = 1 mg/kg s.c. once a day, day 3 after operation
[13] = 1 mg/kg s.c. once a day, day 7 after operation
[14] = 1 mg/kg s.c. once a day, day 14 after operation
[15] = 1 mg/kg s.c. once a day, day 21 after operation
[16] = 1 mg/kg s.c. once a day, day 28 after operation
[17] = 2 mg/kg group, day 1 after operation (before drug administration)
[18] = 2 mg/kg group, day −1 (baseline)
[19] = 2 mg/kg s.c. once a day, day 3 after operation
[20] = 2 mg/kg s.c. once a day, day 7 after operation
[21] = 2 mg/kg s.c. once a day, day 14 after operation
[22] = 2 mg/kg s.c. once a day, day 21 after operation
[23] = 2 mg/kg s.c. once a day, day 28 after operation

In the case of `CCCOc1ccc(S(=O)(=O)N2CCN(CCO)CC2)cc1-c1nc2c(CCC)cn(CC)c2c(=O)[nH]1` [Mirodenafil, mirodenafil], the “hindlimb placing test scores at 28 days, change as compared with neuron apoptosis control” value ([1]; 1 mg/kg from 24 hrs after surgery) is reported as −65.22%, the “hindlimb placing test scores at 28 days, change as compared with neuron apoptosis control” value ([1]; 1 mg/kg from 72 hrs after surgery) is reported as −39.13% and the “hindlimb placing test scores at 28 days, change as compared with neuron apoptosis control” value ([1]; 1 mg/kg from 168 hrs after surgery) is reported as −17.39%. For the same molecule, the “The numbers of body swings to the ipsilateral right sides/total 30 body swings” value [2, 3] was 1.40 ± 1.17^a, the “The percentages of body swings to the ipsilateral right sides/total 30 body swings” value [2, 3] was 4.67 ± 3.91^a % and the “The numbers of body swings to the ipsilateral right sides/total 30 body swings” value [2, 4] was 15.10 ± 0.99. The “The percentages of body swings to the ipsilateral right sides/total 30 body swings” value [2, 4] was 50.33 ± 3.31%, the “The numbers of body swings to the ipsilateral right sides/total 30 body swings” value [2, 5] was 2.10 ± 1.37^a and the “The percentages of body swings to the ipsilateral right sides/total 30 body swings” value [2, 5] was 7.00 ± 4.57^a %. For the same molecule, the “The numbers of body swings to the ipsilateral right sides/total 30 body swings” value [2, 6] was 2.40 ± 1.26^a, the “The percentages of body swings to the ipsilateral right sides/total 30 body swings” value [2, 6] was 8.00 ± 4.22^a % and the “The numbers of body swings to the ipsilateral right sides/total 30 body swings” value [2, 7] was 4.20 ± 1.62^ac. The “The percentages of body swings to the ipsilateral right sides/total 30 body swings” value [2, 7] was 14.00 ± 5.40^ac %, the “The numbers of body swings to the ipsilateral right sides/total 30 body swings” value [2, 8] was 5.40 ± 1.26^ab and the “The percentages of body swings to the ipsilateral right sides/total 30 body swings” value [2, 8] was 18.00 ± 4.22^ab %. For the same molecule, the “The numbers of body swings to the ipsilateral right sides/total 30 body swings” value [2, 9] was 6.20 ± 1.99^ac, the “The percentages of body swings to the ipsilateral right sides/total 30 body swings” value [2, 9] was 20.67 ± 6.63^ac % and the “numbers and percentages of body swings to ipsilateral right sides, change as compared with neuron apoptosis control” value ([2]; 0.5 mg/kg, 3 days after surgery) was 16.67%. For the same molecule, the “numbers and percentages of body swings to ipsilateral right sides, change as compared with neuron apoptosis control” value ([2]; 0.5 mg/kg, 7 days after surgery) was 9.09%, the “numbers and percentages of body swings to ipsilateral right sides, change as compared with neuron apoptosis control” value ([2]; 0.5 mg/kg, 14 days after surgery) was 44.83% and the “numbers and percentages of body swings to ipsilateral right sides, change as compared with neuron apoptosis control” value ([2]; 0.5 mg/kg, 21 days after surgery) was 50.00%. For the same molecule, the “numbers and percentages of body swings to ipsilateral right sides, change as compared with neuron apoptosis control” value ([2]; 0.5 mg/kg, 28 days after surgery) was 44.19%, the “The numbers of body swings to the ipsilateral right sides/total 30 body swings” value [2, 10] was 1.30 ± 0.95^a and the “The percentages of body swings to the ipsilateral right sides/total 30 body swings” value [2, 10] was 4.33 ± 3.16^a %. The “The numbers of body swings to the ipsilateral right sides/total 30 body swings” value [2, 11] was 15.10 ± 1.29, the “The percentages of body swings to the ipsilateral right sides/total 30 body swings” value [2, 11] was 50.33 ± 4.29% and the “The numbers of body swings to the ipsilateral right sides/total 30 body swings” value [2, 12] was 2.70 ± 0.82^a. The “The percentages of body swings to the ipsilateral right sides/total 30 body swings” value [2, 12] was 9.00 ± 2.74^a %, the “The numbers of body swings to the ipsilateral right sides/total 30 body swings” value [2, 13] was 3.10 ± 0.88^a and the “The percentages of body swings to the ipsilateral right sides/total 30 body swings” value [2, 13] was 10.33 ± 2.92^a %. The “The numbers of body swings to the ipsilateral right sides/total 30 body swings” value [2, 14] was 5.80 ± 1.23^ab, the “The percentages of body swings to the ipsilateral right sides/total 30 body swings” value [2, 14] was 19.33 ± 4.10^ab % and the “The numbers of body swings to the ipsilateral right sides/total 30 body swings” value [2, 15] was 7.30 ± 1.89^ab. The “The percentages of body swings to the ipsilateral right sides/total 30 body swings” value [2, 15] was 24.33 ± 6.30^ab %, the “The numbers of body swings to the ipsilateral right sides/total 30 body swings” value [2, 16] was 11.50 ± 1.58^ab and the “The percentages of body swings to the ipsilateral right sides/total 30 body swings” value [2, 16] was 38.33 ± 5.27^ab %. For the same molecule, the “numbers and percentages of body swings to ipsilateral right sides, change as compared with neuron apoptosis control” value ([2]; 1 mg/kg, 3 days after surgery) was 50.00%, the “numbers and percentages of body swings to ipsilateral right sides, change as compared with neuron apoptosis control” value ([2]; 1 mg/kg, 7 days after surgery) was 40.91% and the “numbers and percentages of body swings to ipsilateral right sides, change as compared with neuron apoptosis control” value ([2]; 1 mg/kg, 14 days after surgery) was 100.00%. The “numbers and percentages of body swings to ipsilateral right sides, change as compared with neuron apoptosis control” value ([2]; 1 mg/kg, 21 days after surgery) was 102.78%, the “numbers and percentages of body swings to ipsilateral right sides, change as compared with neuron apoptosis control” value ([2]; 1 mg/kg, 28 days after surgery) was 167.44% and the “The numbers of body swings to the ipsilateral right sides/total 30 body swings” value [2, 17] was 1.20 ± 0.63^a. For the same molecule, the “The percentages of body swings to the ipsilateral right sides/total 30 body swings” value [2, 17] was 4.00 ± 2.11^a %, the “The numbers of body swings to the ipsilateral right sides/total 30 body swings” value [2, 18] was 15.00 ± 1.15 and the “The percentages of body swings to the ipsilateral right sides/total 30 body swings” value [2, 18] was 50.00 ± 3.85%. The “The numbers of body swings to the ipsilateral right sides/total 30 body swings” value [2, 19] was 3.00 ± 0.82^ac, the “The percentages of body swings to the ipsilateral right sides/total 30 body swings” value [2, 19] was 10.00 ± 2.72^ac % and the “The numbers of body swings to the ipsilateral right sides/total 30 body swings” value [2, 20] was 3.20 ± 0.63^ac. For the same molecule, the “The percentages of body swings to the ipsilateral right sides/total 30 body swings” value [2, 20] was 10.67 ± 2.11^ac %, the “The numbers of body swings to the ipsilateral right sides/total 30 body swings” value [2, 21] was 6.00 ± 1.56^ab and the “The percentages of body swings to the ipsilateral right sides/total 30 body swings” value [2, 21] was 20.00 ± 5.21^ab %. For the same molecule, the “The numbers of body swings to the ipsilateral right sides/total 30 body swings” value [2, 22] was 8.80 ± 1.23^ab, the “The percentages of body swings to the ipsilateral right sides/total 30 body swings” value [2, 22] was 29.33 ± 4.10^ab % and the “The numbers of body swings to the ipsilateral right sides/total 30 body swings” value [2, 23] was 11.10 ± 1.91^ab. The “The percentages of body swings to the ipsilateral right sides/total 30 body swings” value [2, 23] was 37.00 ± 6.37^ab %, the “numbers and percentages of body swings to ipsilateral right sides, change as compared with neuron apoptosis control” value ([2]; 2 mg/kg, 3 days after surgery) was 66.67% and the “numbers and percentages of body swings to ipsilateral right sides, change as compared with neuron apoptosis control” value ([2]; 2 mg/kg, 7 days after surgery) was 45.45%. The “numbers and percentages of body swings to ipsilateral right sides, change as compared with neuron apoptosis control” value ([2]; 2 mg/kg, 14 days after surgery) was 106.90%, the “numbers and percentages of body swings to ipsilateral right sides, change as compared with neuron apoptosis control” value ([2]; 2 mg/kg, 21 days after surgery) was 144.44% and the “numbers and percentages of body swings to ipsilateral right sides, change as compared with neuron apoptosis control” value ([2]; 2 mg/kg, 28 days after surgery) was 158.14%.

— US10064865B2, “Composition comprising phosphodiesterase type 5 inhibitor for inhibiting apoptosis of nerve cells” (ARIBIO INC., priority 2012, dated 2018)
